Measured values as given in patent publication US7960173B2, “Cardiac conduction system cells and uses thereof” (Board of Supervisors of Louisiana State University and …, priority 2004, dated 2011).

Test system: cGATA6-minK co-positive cells
Assay: Whole-cell patch-clamp of hyperpolarization-activated (If) current before and after cesium chloride
Assay type: cell-based, murine
Details: 10 mM cesium chloride, n=16 cells, FIG. 3(E),(F)
Procedure: On the day prior to recording, EBs were dispersed and plated onto glass coverslips coated with 0.1% gelatin. On the following day, coverslips were transferred to a recording chamber mounted on an inverted microscope (Nikon Diaphot-TMD) and superfused with extracellular recording solution. All experiments were conducted at room temperature (22-25° C.). Whole-cell voltage-clamp and current-clamp experiments were carried out using a standard Giga-seal patch-clamp method (Hamill O P et al. Pflugers Arch 391 (1981) 85). Recording electrodes were fabricated from 1.5 mm thin-walled borosilicate glass tubes (#7052. Garner Glass, Claremont, Calif.), using a Flaming-Brown microelectrode puller (P-97, Sutter Instruments, Novato, Calif.) and heat-polished before use. […] Recordings were performed using an Axoclamp 2B patch-clamp amplifier (Axon Instruments, Union City, Calif.). Data were filtered at 2 kHz, and data were acquired using Clampex 8 software (Axon Instruments). […]
In FIG. 3 (B) cGATA6-minK cells with morphologies similar to contracting atrial myocytes display atrial-like action potential waveforms (FIG. 3D). […] (F) Current-voltage relationship for hyperpolarization-activated currents measured in cGATA6-minK co-positive cells before (triangles) and after (squares) treatment with 10 mM cesium chloride. […]

Q: With [Cl-].[Cs+] [cesium chloride] as the compound, how does the “sensitivity of hyperpolarization-activated cation current (If) to cesium” value read?
A: cesium-sensitive
